# Reference: ChEMBL document CHEMBL5108010, “Structure-activity relationship studies on divalent naphthalene diimide G quadruplex ligands with anticancer and antiparasitic activity” (Bioorg Med Chem, 2022)
# pIC50: −log10 of the molar value.
# Columns and labels:
# [1] = Cytotoxicity against human MRC5 cells assessed as inhibition of cell proliferation incubated for 72 hrs by alamar blue assay; type: toxicity, cell-based; details: human, MRC5 cells
# HeLa = assay: Cytotoxicity against human HeLa cells assessed as inhibition of cell proliferation incubated for 72 hrs by alamar blue assay; type: functional, cell-based; details: Homo sapiens, HeLa, 72 h
# Trypanosoma brucei = assay: Antitrypanosomal activity against Trypanosoma brucei bloodstream form assessed as inhibition of parasite growth incubated for 72 hrs by alamar blue assay; type: functional, organism-based; details: Trypanosoma brucei, 72 h
# Leishmania major = assay: Antileishmanial activity against Leishmania major (MHOM/IL/80/Friedlin) promastigotes assessed as inhibition of parasite growth incubated for 72 hrs by MTT assay; type: functional, organism-based; details: Leishmania major, MHOM/IL/80/Friedlin, 72 h
# [2] = Selectivity index, ratio of IC50 for cytotoxicity against human MRC5 cells to IC50 for cytotoxicity against human HeLa cells; type: toxicity, cell-based; details: MRC5 cells versus HeLa cells, read-out: Ratio IC50
# [3] = Selectivity index, ratio of IC50 for cytotoxicity against human MRC5 cells to IC50 for antitrypanosomal activity against Trypanosoma brucei bloodstream form; type: toxicity, cell-based; details: MRC5 cells versus Trypanosoma brucei bloodstream form, read-out: Ratio IC50
# [4] = Selectivity index, ratio of IC50 for cytotoxicity against human MRC5 cells to IC50 for antileishmanial activity against Leishmania major (MHOM/IL/80/Friedlin) promastigotes; type: toxicity, cell-based; details: read-out: Ratio IC50
# Quadruplex DNA [5] = assay: Binding affinity to G-quadruplex telomeric DNA F21T (5'-duplex GGG TTAGGG TTAGGG TTAGGG-3') (unknown origin) assessed as stabilization by measuring change in melting temperature at 10 uM in potassium buffer by FRET melting assay; type: nucleic-acid assay
# Quadruplex DNA [6] = assay: Binding affinity to G-quadruplex telomeric DNA F21T (5'-duplex GGG TTAGGG TTAGGG TTAGGG-3') (unknown origin) assessed as stabilization by measuring change in melting temperature at 10 uM in sodium buffer by FRET melting assay; type: nucleic-acid assay
# Quadruplex DNA [7] = assay: Binding affinity to G-quadruplex telomeric DNA FMycT (5'-duplex GGG TTAGGG TTAGGG TTAGGG-3') (unknown origin) assessed as stabilization by measuring change in melting temperature at 10 uM in potassium buffer by FRET melting assay; type: nucleic-acid assay
# Quadruplex DNA [8] = assay: Binding affinity to Trypanosoma brucei G-quadruplex telomeric DNA FEBR1T (5'-duplex GGG TTAGGG TTAGGG TTAGGG-3') assessed as stabilization by measuring change in melting temperature at 10 uM in potassium buffer by FRET melting assay; type: nucleic-acid assay
# [9] = Binding affinity to hairpin duplex DNA F10T (unknown origin) assessed as stabilization by measuring change in melting temperature at 10 uM in potassium buffer by FRET melting assay
# [10] = Drug uptake in human MRC5 cells incubated at 4 degreeC for 30 mins by flow cytometry analysis; type: ADME, cell-based; details: mrc5, 0.5 h
# [11] = Drug uptake in human MRC5 cells incubated at 4 degreeC for 2 hrs by flow cytometry analysis; type: ADME, cell-based; details: mrc5, 2 h
# [12] = Drug uptake in human MRC5 cells incubated at 37 degreeC for 30 mins by flow cytometry analysis; type: ADME, cell-based; details: mrc5, 0.5 h
# [13] = Drug uptake in human MRC5 cells incubated at 37 degreeC for 2 hrs by flow cytometry analysis; type: ADME, cell-based; details: mrc5, 2 h
# [14] = Drug uptake in Trypanosoma brucei incubated at 4 degreeC for 2 hrs by flow cytometry analysis; type: ADME
# [15] = Drug uptake in Trypanosoma brucei incubated at 4 degreeC for 16 hrs by flow cytometry analysis; type: ADME
# [16] = Drug uptake in Trypanosoma brucei incubated at 37 degreeC for 2 hrs by flow cytometry analysis; type: ADME
# [17] = Drug uptake in Trypanosoma brucei incubated at 37 degreeC for 16 hrs by flow cytometry analysis; type: ADME
# [18] = Drug uptake in human MRC5 cells assessed as drug internalization at 5 uM incubated for 30 mins by DAPI staining based confocal fluorescence microscopic analysis; type: ADME, cell-based; details: mrc5, 0.5 h
# [19] = Drug uptake in human MRC5 cells assessed as drug internalization at 5 uM incubated for 120 mins by DAPI staining based confocal fluorescence microscopic analysis; type: ADME, cell-based; details: mrc5, 2 h
# [20] = Drug uptake in Trypanosoma brucei assessed as drug internalization at 5 uM incubated for 2 hrs by DAPI staining based confocal fluorescence microscopic analysis; type: ADME
# [21] = Drug uptake in Trypanosoma brucei assessed as drug internalization at 5 uM incubated for 6 hrs by DAPI staining based confocal fluorescence microscopic analysis; type: ADME
# [22] = Drug internalization in nuclei of human MRC5 cells at 5 uM incubated for 2 hrs by DAPI staining based confocal fluorescence microscopic analysis; type: ADME, cell-based; details: mrc5, 2 h
# [23] = Drug internalization in nuclei of Trypanosoma brucei at 5 uM incubated for 6 hrs by DAPI staining based confocal fluorescence microscopic analysis; type: ADME
structure (smiles),measurement,setting,value
CN1CCN(c2ccc(N3C(=O)c4ccc5c6c(ccc(c46)C3=O)C(=O)N(c3ccc(N4CCN(C)CC4)cc3)C5=O)cc2)CC1,IC50 at 72 h,[1],22300 nM
same,pIC50,HeLa,5.64
same,pIC50,Trypanosoma brucei,6.12
same,pIC50,Leishmania major,6.03
same,selectivity ratio,[2],9.72
same,selectivity ratio,[3],29.5
same,selectivity ratio,[4],23.8
same,ΔTm,Quadruplex DNA [5],1.4 °C
same,ΔTm,Quadruplex DNA [6],1.3 °C
same,ΔTm,Quadruplex DNA [7],1.8 °C
same,ΔTm,Quadruplex DNA [8],0.9 °C
same,ΔTm,[9],-0.1 °C
same,Drug uptake,[10],Active
same,Drug uptake,[11],Active
same,Drug uptake,[12],Active
same,Drug uptake,[13],Active
same,Drug uptake,[14],Active
same,Drug uptake,[15],Active
same,Drug uptake,[16],Active
same,Drug uptake,[17],Active
same,Drug uptake,[18],Active
same,Drug uptake,[19],Active
same,Drug uptake,[20],Active
same,Drug uptake,[21],Active
same,Drug uptake,[22],Active
same,Drug uptake,[23],Active
